Test: molar heat capacity at constant pressure
Details: Liquid, Large sample (1 g) DSC

CCF [fluoroethane]
molar heat capacity at constant pressure [J/K/mol]
Details | 2160 kPa | 2580 kPa | 3100 kPa | 3480 kPa | 4030 kPa | 4460 kPa | 4990 kPa | 5490 kPa
305.15 K | 105.01 | 104.34 | 103.9 | 104.19 | 104.67 | 104.39 | 103.81 | 102.94
310.15 K | 107.51 | 106.21 | 106.31 | 106.26 | 105.59 | 105.06 | 105.25 | 104.39
315.15 K | 109.82 | 108.66 | 109 | 108.23 | 107.36 | 106.26 | 106.55 | 105.83
320.15 K | 112.17 | 111.69 | 111.64 | 110.44 | 109.53 | 108.18 | 107.94 | 107.46
325.15 K | – | 114.86 | 114.09 | 112.89 | 111.88 | 110.87 | 109.67 | 109.34
330.15 K | – | 117.79 | 116.59 | 115.92 | 114.57 | 114 | 112.07 | 111.5
335.15 K | – | – | 120.68 | 119.81 | 117.99 | 117.51 | 115.25 | 114.14
340.15 K | – | – | 129.47 | 125.24 | 122.65 | 121.4 | 119.28 | 117.41
345.15 K | – | – | – | 132.6 | 128.7 | 126.06 | 124.23 | 121.69
350.15 K | – | – | – | – | 136.59 | 132.45 | 130.05 | 127.26
355.15 K | – | – | – | – | 148.79 | 142.5 | 136.68 | 134.37
360.15 K | – | – | – | – | – | 159.27 | 147.49 | 142.78
